Results taken from PMC8129133, “Polymer-free corticosteroid dimer implants for controlled and sustained drug delivery” (Nature Communications, 2021).
Where “and” joins values, the source holds several entries; their conditions need not be identical. Identical values can stand only once.

Key:
[1] = In vitro half-life / degradation of solubilized Dex-TEG-Dex in FBS; type: in vitro ADME
Experimental: Dex-TEG-Dex was dissolved in acetone at 10 mg/ml and added to 100% FBS to obtain a final concentration of 10 µg/ml and incubated at 37 °C with constant agitation at 115 rpm (VWR). At experimental timepoints of t = 0, 0.5, 1, 2, 3, 4, 5, 6, and 24 h, sample was removed and protein was precipitated with acetonitrile. Samples were vortexed and centrifuged to separate extracted drug from the precipitated protein. The supernatant was then analyzed by HPLC as described above.

[2] = system: lipopolysaccharide (LPS)-induced model of uveitis in a rat eye; assay: Rat uveitis model; type: in vivo, Brown Norway rats; conditions: for Retinal Thickness (µm): single eyes, Fig 7e
Experimental: Sample preparation. Dex-TEG-Dex was weighed on a stainless steel coupon and transferred to a heat press (Carver Laboratory Press). Once melted, a polytetrafluoroethylene (PTFE) template was placed on the melt and pressure was applied for 2 min. Samples were cooled to room temperature prior to removal from the PTFE mold, yielding implants with 23 G diameter × 1 mm length. Samples were loaded into appropriate-sized needles (23 G), packaged, and sterilized by ethylene oxide gas.
LPS stimulation and implantation. […] Animals were first sedated in an isoflurane gas chamber before being anaesthetized through an intraperitoneal injection of ketamine (100 mg/kg) and xylazine (10 mg/kg) solution. One day prior to LPS stimulation, eyes were prepared with topical anesthetic eye drops (Alcaine, 0.5%, Alcon) and pupils were dilated with application of one drop of 1% tropicamide (Alcon) on each cornea prior to anesthesia. Implants were then injected with a 23 G needle into the vitreous humor of rat eyes. Negative control animals received a sham injection, while the positive control group received a sham injection as well as Dex eye drops 4× daily (Maxidex 0.1%, Alcon). One day after test article administration, each rat received an intravitreal injection of 100 ng of LPS (LPS Escherichia coli 0111:B4, Sigma Aldrich) to induce inflammation. The inflammatory state of the eyes was monitored by slit-lamp microscopy (Phoenix Anterior Segment Slit Lamp), fundus microscopy (Phoenix Micron IV), and optical coherence tomography (Phoenix image-guided OCT) for 72 h post-LPS injection. Slit-lamp was used to image the anterior structures of the rat eye and to assess changes in vasculature, aqueous humor haze, pupil responsiveness, and presence of cellular infiltrates. Anterior segment OCT (ASOCT) was used to assess signs of inflammation in the anterior chamber through anterior chamber flare, pupillary fibrin occlusions, and presence of inflammatory cells. The ASOCT was used only for qualitative evaluation of the inflammatory state. Posterior segment OCT (PSOCT) was used to capture six (6) images around the optic disc (OD) of each eye and the images were used for retinal thickness, inflammatory cell count, and vitreal haze evaluation. Retinal thickness was measured using ImageJ (v.1.8.0) from four (4) OCT images close to the optic disk. Inflammatory cells were manually quantified from the same OCT images used for retinal thickness measurements.

[3] = system: vascular endothelial growth factor (VEGF) induced blood-retinal barrier breakdown; assay: Rabbit pharmacodynamics, VEGF-induced vascular leakage; type: in vivo, Dutch Belted rabbits
Experimental: Pharmacodynamics. Rabbit pharmacodynamics studies were performed at Absorption Systems California (San Diego, CA, USA). All studies were conducted in compliance with relevant ethical regulations, including the USDA Animal Welfare Act (i.e., relevant sections of Section 9, Part 1, 2, and 3 of the Code of Federal Regulations) and in compliance with Absorption Systems’ Animal Welfare Assurance filed with the National Institutes of Health. Protocols were reviewed and approved by Absorption Systems’ Institutional Animal Care and Use Committee (IACUC) prior to the initiation of procedures. Treatment of animals was in accordance with conditions specified in the Guide for Care and Use of Laboratory Animals (NRC, 2011, National Academy Press). Animals were anesthetized with intramuscular ketamine hydrochloride (15-20 mg/kg) and xylazine (5 mg/kg) prior to test article injection or vascular leakage induction. The eye area was surgically prepped with 5% betadine and rinsing with balanced salt solution, followed by administration of 1–2 drops of topical proparacaine hydrochloride (0.5%). […] Test articles (27 G × 6 mm, 30 G × 6 mm, and 32 G × 6 mm Dex-TEG-Dex extruded rods, or Ozurdex®) were injected intravitreally in Dutch Belted rabbits (male, 1.84–2.49 kg, 5–6 months) on Day 0 and vascular leakage was induced by an intravitreal injection of VEGF (500 ng/eye) at acute and chronic timepoints (1 week, 2.5, 4.5, 6, 9, 12, and/or 18 months) post-implantation. Post-injection analgesia was provided by 0.02-0.05 mg/kg IM/SC buprenorphine. Negative control rabbits received a sham injection while positive control rabbits received a 2 mg solution dose of triamcinolone acetonide (Kenalog-40). Ophthalmic exams, including fundus microscopy and slit lamp microscopy, were carried out over the 3 days post-VEGF induction and vascular leakage was measured by fluorescein angiography on the third day post-VEGF induction. Eyes were graded based on fundus and fluorescein angiography images using a scoring system as follows[76]: 0 – major vessels straight, some tortuosity of smaller vessels, no vessel dilation; 1 – increased tortuosity of major vessels and/or some vessel dilation; 2 – leakage between major vessels, significant vessel dilation; 3 – leakage between major and minor vessels, minor vessels still visible; and 4 – leakage between major and minor vessels, minor vessels poorly/not visible.

SMILES: C[C@@H]1C[C@H]2[C@@H]3CCC4=CC(=O)C=C[C@]4(C)[C@@]3(F)[C@@H](O)C[C@]2(C)[C@@]1(O)C(=O)COC(=O)OCCOCCOCCOC(=O)OCC(=O)[C@@]1(O)[C@H](C)C[C@H]2[C@@H]3CCC4=CC(=O)C=C[C@]4(C)[C@@]3(F)[C@@H](O)C[C@@]21C [Dex-TEG-Dex]
- t1/2 of solubilized dimer with protease inhibitor ([1]; FBS + Pefabloc 1 mg/ml): 17.5 ± 4.0 h
- t1/2 of solubilized dimer ([1]; FBS, 37 °C): 1.6 ± 0.3 h
- Dex-TEG-Dex ([1]; Fig 4f/4g, 100% FBS, 0 h): 8904.60 ng/mL and 12808.33 ng/mL and 10692.90 ng/mL
- Dex-TEG-Dex ([1]; Fig 4f/4g, 100% FBS, 0.5 h): 7215.95 ng/mL and 9829.58 ng/mL and 8828.65 ng/mL
- Dex-TEG-Dex ([1]; Fig 4f/4g, 100% FBS, 1 h): 5359.02 ng/mL and 7447.63 ng/mL and 6811.81 ng/mL
- Dex-TEG-Dex ([1]; Fig 4f/4g, 100% FBS, 2 h): 2692.08 ng/mL and 4406.52 ng/mL and 3872.43 ng/mL
- Dex-TEG-Dex ([1]; Fig 4f/4g, 100% FBS, 3 h): 1327.43 ng/mL and 2230.11 ng/mL and 1843.05 ng/mL
- Dex-TEG-Dex ([1]; Fig 4f/4g, 100% FBS, 4 h): 658.17 ng/mL and 1181.11 ng/mL and 1053.60 ng/mL
- Dex-TEG-Dex ([1]; Fig 4f, 100% FBS, 24 h): 0.00 ng/mL
- Dex-TEG-Dex ([1]; Fig 4g, 100% FBS + Pefabloc, 0 h): 9696.84 ng/mL and 12099.70 ng/mL and 11672.92 ng/mL
- Dex-TEG-Dex ([1]; Fig 4g, 100% FBS + Pefabloc, 0.5 h): 9639.71 ng/mL and 11685.46 ng/mL and 12342.53 ng/mL
- Dex-TEG-Dex ([1]; Fig 4g, 100% FBS + Pefabloc, 1 h): 9646.33 ng/mL and 10767.80 ng/mL and 11272.62 ng/mL
- Dex-TEG-Dex ([1]; Fig 4g, 100% FBS + Pefabloc, 2 h): 9053.36 ng/mL and 10983.11 ng/mL and 10167.52 ng/mL
- Dex-TEG-Dex ([1]; Fig 4g, 100% FBS + Pefabloc, 3 h): 9138.02 ng/mL and 9847.00 ng/mL and 8269.83 ng/mL
- Dex-TEG-Dex ([1]; Fig 4g, 100% FBS + Pefabloc, 4 h): 8469.46 ng/mL and 9930.96 ng/mL and 8280.63 ng/mL
- Dex-TEG-Dex ([1]; Fig 4g, 100% FBS + Pefabloc, 5 h): 8230.46 ng/mL and 9376.67 ng/mL and 8546.80 ng/mL
- Dex-TEG-Dex ([1]; Fig 4g, 100% FBS + Pefabloc, 6 h): 7196.79 ng/mL and 9318.49 ng/mL and 8262.17 ng/mL
- Retinal Thickness (µm) ([2]; 0h): 298 µm and 279 µm and 272 µm and 275 µm and 314 µm and 300 µm and 293 µm and 294 µm
- Retinal Thickness (µm) ([2]; 24h): 300 µm and 269 µm and 279 µm and 286 µm and 296 µm and 289 µm and 292 µm
- Retinal Thickness (µm) ([2]; 48h): 279 µm and 296 µm and 265 µm and 264 µm and 275 µm and 261 µm and 294 µm and 266 µm
- Retinal Thickness (µm) ([2]; 72h): 245 µm and 261 µm and 250 µm and 249 µm and 236 µm and 241 µm and 247 µm and 259 µm
- Retinal Thickness (µm) ([2]; -24h): 244 µm and 248 µm and 257 µm and 251 µm and 238 µm and 240 µm
- effect on LPS-induced inflammatory response ([2]; intravitreal 23 G implant, 24 h before LPS, cellular infiltrate and retinal thickness by OCT, 72 h): acutely suppress the LPS-induced inflammatory response
- efficacy against VEGF-induced changes ([3]; 1 week, Dex-TEG-Dex as 30 G × 6 mm implant): efficacious
- duration of efficacy ([3]; 27 G × 6 mm implant, all time points tested): ≥ 18 months
- duration of inhibition of VEGF-induced effects ([3]; 32 G × 6 mm implant): ≥ 4.5 months
- efficacy against VEGF-induced changes ([3]; 32 G × 6 mm implant, 6 months): reduced efficacy
- duration of efficacy ([3]; Dex-TEG-Dex as 30 G × 6 mm implant, VEGF challenge): 9–12 months
- duration of efficacy ([3]; Dex-TEG-Dex as 30 G × 6 mm implant, VEGF challenge, listed as dexamethasone dimer): > 6 months
